Test: gradient 5% acetonitrile 3 min, to 50% in 2 min, to 85% in 15 min, held 3 min, 100 µL/min
Settings: column: Zorbax Extend-C18 2.1 x 50 mm; eluents: water / acetonitrile, 0.1% formic acid
How it was run: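 Retention times come from adduct peaks that were picked computationally and then checked by hand. The standards, pure and pooled in mixtures of ~100 molecules, were run on a Zorbax Extend-C18 column (2.1 × 50 mm, 1.8 μm) at 100 μL/min with water and acetonitrile, each with 0.1% formic acid. Detection was by quadrupole time-of-flight mass spectrometry in positive and negative ionization mode, with a dead volume of 40 μL and a dwell volume of 900 μL.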

| SMILES | RP-LC retention time |
| --- | --- |
| Cc1ccc(-c2nc3cccnc3n2CCCNC(=O)Nc2ccc3c(c2)OCCO3)cc1 | 698 s |
| COc1ccc(-c2nc3cnccn3c2Nc2ccccc2OC)cc1 | 863 s |
| CCOCCCNC(=O)CC1CCN(C(=O)c2[nH]c(C)cc2C)CC1 | 661 s |
| CCS(=O)(=O)Nc1cc(-c2nnc(C)o2)sc1C | 738 s |
| Cc1ccc(C)c(CNC(=O)c2nc(C)oc2C)c1 | 867 s |
| Nc1cc(C2CCN(C(=O)Nc3ccc(Cl)cc3F)CC2)no1 | 717 s |
| CCCC(=O)N1CCC(C(=O)Nc2ccc(OCC)cc2)CC1 | 718 s |
| CN1CCN(S(=O)(=O)c2c[nH]c(=O)[nH]c2=O)CC1 | 720 s |
| COCc1nc(CCNC(=O)C2CCC2)no1 | 609 s |
| CCC(CC)C(=O)N1CCC2(CC1)C(=O)N(C)c1ccccc12 | 850 s |
| CC(C)(C)c1csc(-c2csc(S(=O)(=O)N3CCN(c4ccccn4)CC3)c2)n1 | 974 s |
| COc1ccc(N2CC(c3nc(-c4ccccc4)no3)CC2=O)cc1OC (centres undefined) | 669 s |
| Cc1ccn2c(Nc3ccccc3C)c(-c3ccccc3)nc2c1 | 745 s |
| Fc1ccc(-c2nnc(-c3ccc(-n4ccnc4)nc3)o2)c(F)c1 | 645 s |
| O=S(=O)(c1ccccc1F)N1CCc2nc(-c3ccccc3)ncc2C1 | 1010 s |
| Cc1ccccc1NC(=O)c1cccn1Cc1noc(C2CC2)n1 | 880 s |
| Cc1cc(-c2ccc(S(=O)(=O)N3CCN(c4ccccn4)CC3)s2)n[nH]1 | 623 s |
| COCCOCc1nc(C2CCN(S(=O)(=O)c3cc(F)ccc3F)CC2)no1 | 806 s |
| Cc1cc(C)cc(N2CC(C)Cn3c2nc2c3c(=O)n(CC(=O)O)c(=O)n2C)c1 (centres undefined) | 826 s |
| Clc1ccc(-c2nc(-c3cccc(-c4ccn[nH]4)c3)no2)cc1 | 1090 s |
| O=C(Nc1ccccc1)C1CCN(C(=O)c2ncn3c2COC(c2ccccc2)C3)CC1 (centres undefined) | 752 s |
| COc1ccc(NC(=O)N2[C@H]3CC[C@@H]2c2cnc(C)nc2C3)cc1OC | 611 s |
| O=C(NCc1ccccn1)c1csc(Nc2ccc(OC(F)(F)F)cc2)n1 | 674 s |

| SMILES | RP-LC retention time |
| --- | --- |
| COc1cccc(CNC(=O)C2CCCN(c3ncnc4c3nc3n4CCCCC3)C2)c1 (centres undefined) | 736 s |
| COCCCNC(=O)c1ccc2c(c1)N(Cc1ccccc1)C(=O)CO2 | 732 s |
| O=c1ccc(-c2ccc3c(c2)OCO3)nn1CCc1nc(-c2ccncc2)no1 | 730 s |
| CC(=O)c1cccc(NC(=O)N(c2ccccc2)c2ccccc2)c1 | 860 s |
| CC(NC(=O)Cn1cnc(-c2noc(-c3cccnc3)n2)c1)c1ccccc1 (centres undefined) | 823 s |
| CCCNC(=O)Cn1c(CC)nc2c(c1=O)CN(Cc1ccccc1)CC2 | 589 s |
| CCOc1ccc(-c2csc(NC(=O)CCCOc3ccc(Cl)cc3)n2)cc1 | 810 s |
| CC(C)n1cnc2ccc(-c3noc(COc4ccc(Cl)cc4)n3)cc21 | 853 s |
| O=c1c2ccccc2c(-c2nc(-c3ccncc3)no2)cn1-c1ccc(F)cc1 | 1080 s |
| CNC(=O)c1cc(-c2ccccc2)n[nH]1 | 643 s |
| Cc1ccc2cc(CCC(=O)NCCN3CCCCCC3)c(=O)[nH]c2c1 | 628 s |
| CC(C)CCNC(=O)c1cccc2c1CCN2C(=O)C1CC1 | 831 s |
| CN1C(=O)c2cc(S(=O)(=O)NCc3ccc(Cl)cc3)ccc2Oc2cccnc21 | 968 s |
| COc1ccccc1NC(=O)C1CCCN(S(=O)(=O)c2c[nH]c(C(=O)N3CCCCCC3)c2)C1 (centres undefined) | 898 s |
| CCc1ccc(CNC(=O)C2CCCN(c3ncnc4nn(-c5ccc(C)cc5)cc34)C2)cc1 (centres undefined) | 787 s |
| COc1cccc(NS(=O)(=O)c2cc(-c3[nH]ncc3C(=O)N3CCCCC3)oc2C)c1 | 721 s |
| O=C(NCc1cccnc1)C1c2ccccc2C(=O)N(C2CCCC2)C12CCCCC2 (centres undefined) | 677 s |
| COc1ccc(S(=O)(=O)NCc2ccc3c(c2)CCN3C(=O)C(C)C)cc1OC | 803 s |
| COc1ccccc1-c1noc(Cn2c(=O)n(Cc3ccc4c(c3)OCO4)c(=O)c3sccc32)n1 | 956 s |
| CCc1ccc(N(CC)C(=O)Cn2cnc3nc4c(cc3c2=O)CCCC4)cc1 | 885 s |
| N#Cc1cccc(S(=O)(=O)N2CCC(c3nnc(C(=O)Nc4ccc5c(c4)OCO5)s3)CC2)c1 | 951 s |
| CC(=O)N(Cc1nn(C)c2c1CN(S(=O)(=O)c1ccc3c(c1)CCC3)CC2)c1ccccc1 | 868 s |
| CCCOc1nc2ccccc2nc1N1CCCC(C(=O)Nc2c(Cl)cc(OC)cc2OC)C1 (centres undefined) | 1370 s |

| SMILES | RP-LC retention time |
| --- | --- |
| Cc1noc(-c2cccc(OC3CN(C(=O)NCC(C)C)C3)c2)n1 | 808 s |
| CCOCCCNS(=O)(=O)c1cc(-c2nc(C)c(C)s2)sc1C | 961 s |
| CC(C)CN1CCn2cc(S(=O)(=O)NCc3ccc(F)c(Cl)c3)cc2C1=O | 855 s |
| COC(=O)c1c(-c2ccccc2)noc1NCc1ccccc1 | 1050 s |
| Cc1ccc2[nH]cc(CCN3CC(C(=O)N4CCOCC4)CC3=O)c2c1 (centres undefined) | 679 s |
| CCOC(=O)C1CCN(C(=O)CCc2nc(-c3ccc(N4CCCC4)cc3)no2)CC1 | 1030 s |
| Cc1cc2n(n1)CCCN2C(=O)CCC(=O)N1CCN(c2cccc(Cl)c2)CC1 | 778 s |
| COc1ccc(CNC(=O)N2CCC(COCc3ccccc3)CC2)cc1OC | 814 s |
| O=C(N1CCC(NS(=O)(=O)c2cccc(F)c2)CC1)N1C[C@H]2C[C@H](C1)[C@H]1CCCC(=O)N1C2 | 704 s |
| COc1ccc(Cl)cc1S(=O)(=O)N1CCCC(C(=O)Nc2ccc(C)c(C)c2)C1 (centres undefined) | 1080 s |
| COc1ccc(N2CCN(C(=O)C3CCN(c4cnc5nccnc5c4)CC3)CC2)cc1 | 634 s |
| CC(NC(=O)C(C)(C)C)C(=O)N1CCN(c2ccccn2)CC1 (centres undefined) | 574 s |
| CCOc1ccc(C(=O)N2CCN(c3cc(CC)n4cnnc4n3)CC2)cc1 | 742 s |
| O=c1ccc(-c2ccc3c(c2)OCO3)nn1CCc1nc(-c2ccccn2)no1 | 730 s |
| O=C(c1ccoc1)N1CCCC(OCc2nc(-c3ccncc3)no2)C1 (centres undefined) | 668 s |
| CCOc1ccccc1NC(=O)N1CCC2(CC1)NC(=O)c1ccc(Cl)cc1N2C | 858 s |
| COc1ccc(S(=O)(=O)N2CCCC(C(=O)Nc3ccc4c(c3)OCO4)C2)cc1C (centres undefined) | 957 s |
| CCC(=O)N1CCc2cc(N3CC(C(=O)NC(C)c4ccccn4)CC3=O)ccc21 (centres undefined) | 585 s |
| CC1=C(c2ccc(C)cc2)S(=O)(=O)N=C1N1CCC(NC(=O)C2CCCO2)CC1 (centres undefined) | 902 s |
| CC1=C(c2ccc(Cl)cc2)S(=O)(=O)N=C1N1CCCN(C(=O)NC(C)C)CC1 | 780 s |
| COC(=O)c1ncn2c1C(=O)N(Cc1ccccc1)C(C)(C(=O)NC1CCCCC1)C2 (centres undefined) | 750 s |
| Cc1nc(-c2csc(S(=O)(=O)N3CCCC(C(=O)Nc4ccc(Cl)cc4)C3)c2)no1 (centres undefined) | 1040 s |
| COc1ccc(CCNC(=O)C2CCN(c3ncnc4c3oc3ccccc34)CC2)cc1OC | 683 s |

| SMILES | RP-LC retention time |
| --- | --- |
| Cc1cc(NC(=O)c2c(F)cccc2Cl)n(-c2nc(-c3ccccc3)cs2)n1 | 1330 s |
| Cc1cccc(N2CCN(c3ccc4cc(S(=O)(=O)N5CCOCC5)ccc4n3)CC2)c1C | 1080 s |
| Cc1cccc(-c2nc3nc(C)cc(Nc4cccc5nsnc45)n3n2)c1 | 984 s |
| CCOC(=O)c1noc2nc(C)nc(NCc3ccc(OC)cc3)c12 | 1010 s |
| N#Cc1cccc(NC(=O)C2CCN(S(=O)(=O)c3cc(-c4noc(C5CC5)n4)cs3)CC2)c1 | 994 s |
| CC(C)c1ccc(-c2ccnc3c(C(=O)NCc4ccco4)cnn23)cc1 | 1090 s |
| COC(=O)C1=CN(c2cccc(C)c2)c2cc(F)ccc2S1(=O)=O | 911 s |
| CS(=O)(=O)Nc1cccc(OCc2nnc(-c3ccccc3)o2)c1 | 798 s |
| Cc1nnc(NC(=O)Cc2csc(NC(=O)C3CCCC3)n2)s1 | 677 s |
| CCOC(=O)c1c(S(=O)(=O)N2CCC(C(=O)Nc3ccccc3OC)CC2)c(C)n(C)c1C | 850 s |
| CCn1cc(-c2nc(C)c(C(=O)N3CCCCCC3)s2)c2cccnc21 | 942 s |
| COc1ccc(NC(=O)C2CCN(c3cc(N4CCCCC4)ncn3)CC2)c(OC)c1 | 694 s |
| Cc1ccccc1Cn1c(C)c(CNCCc2ccco2)c(C(=O)O)c1C | 738 s |
| Cc1cc(N2CCN(C)CC2)nc(N2CCN(C(=O)c3ccc(-c4ccccc4)cc3)CC2)n1 | 585 s |
| COc1ccc(N2CCN(c3cc(-c4nc(-c5ccccc5)no4)c4ccccc4n3)CC2)cc1 | 586 s |
| Cc1nc(CSc2ccc(-c3cccc([N+](=O)[O-])c3)nn2)cs1 | 817 s |
| CCN1CCN(CCNC(=O)c2csc(-c3ccc(N4CCCC4)nc3)n2)CC1 | 550 s |
| COc1ccc(-c2nc(C)cc(C)c2CNC(=O)c2cccs2)cc1 | 610 s |
| O=C(CN1C(=O)COc2ccc(C(=O)N3CCCC3)cc21)N1CCN(c2ccccc2)CC1 | 718 s |
| CCOc1ccc2nc(C(=O)NC(C)C)cn2n1 | 731 s |
